We go through one substance from patent US8133471B2, “CLK-peptide and SLK-peptide” (New York University, priority 2003, dated 2012).

The assay concerns Metastatic B16 murine melanoma cells. Nature of the assay: B16 melanoma cell adhesion to native or denatured collagen type-IV (Example 3). In kind it is cell-based. The source says: FIG. 2 is a chart which illustrates B16 murine melanoma cell adhesion to untreated denatured collagen type-IV (NT), CLK-peptide treated denatured collagen type-IV, and SHR-peptide treated denatured collagen type-IV.
Non-tissue culture treated 48-well plates were coated with either native (triple helical) or denatured collagen type-IV. Metastatic B16 murine melanoma cells were allowed to attach to the coated wells in the presence or absence of either CLK or SHR (control) peptide. CLK-peptide blockade of B16 cell adhesion to denatured type-IV collagen exceeded 95% (FIG. 2). CLK-peptide had little effect on B16 melanoma cell adhesion to native collagen type-IV.

As for “H-CLKQNGGNFSLG-OH [CLK-peptide, NH2-C-L-K-Q-N-G-G-N-F-S-L-G-COOH]”, the “blockade of B16 cell adhesion to denatured type-IV collagen” value (wells coated with denatured collagen type-IV) is “exceeded 95%”. In addition, the “effect on B16 melanoma cell adhesion to native collagen type-IV” value (wells coated with native (triple helical) collagen type-IV) is “little effect”.
